Test results from ChEMBL document CHEMBL1134732, “Acid dissociation constant, a potential physicochemical factor in the inhibition of the enzyme estrone sulfatase (ES)” (Bioorg Med Chem Lett, 2001).

Key:
[1] = Dissociation constant was determined; type: physicochemical
[2] = target: T1, Steryl-sulfatase (Homo sapiens) (UniProt P08842); test: (§1) Potency for the inhibition of estrone sulfatase relative to coumate
T1 sequence (whole entry): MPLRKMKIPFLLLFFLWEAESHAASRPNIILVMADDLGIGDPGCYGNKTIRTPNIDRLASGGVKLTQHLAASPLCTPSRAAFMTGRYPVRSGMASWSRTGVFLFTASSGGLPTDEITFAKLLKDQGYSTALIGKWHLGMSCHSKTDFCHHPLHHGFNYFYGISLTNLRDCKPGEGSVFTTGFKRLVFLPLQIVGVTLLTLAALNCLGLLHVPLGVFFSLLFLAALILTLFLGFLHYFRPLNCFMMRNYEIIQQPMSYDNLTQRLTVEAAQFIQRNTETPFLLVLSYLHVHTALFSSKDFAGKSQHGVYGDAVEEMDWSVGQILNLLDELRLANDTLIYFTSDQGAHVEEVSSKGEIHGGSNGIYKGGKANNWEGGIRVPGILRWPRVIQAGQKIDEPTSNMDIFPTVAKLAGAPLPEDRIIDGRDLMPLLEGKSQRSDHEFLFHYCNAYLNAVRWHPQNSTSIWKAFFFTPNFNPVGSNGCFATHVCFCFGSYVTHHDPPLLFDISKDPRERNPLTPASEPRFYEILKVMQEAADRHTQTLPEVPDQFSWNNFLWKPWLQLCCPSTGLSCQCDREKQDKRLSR

Steryl-sulfatase = target: T2, Steryl-sulfatase (Homo sapiens, UniProt P08842); test: Inhibitory concentration against estrone sulfatase
T2 sequence (P08842 whole entry): T1 sequence (whole entry)

[3] = as §1

Row | pKa [1] | Relative potency [2] | IC50 (Steryl-sulfatase) | Compound | Relative potency [3]
1 | 10.2 | – | > 10000 µM | Cc1ccc(OS(N)(=O)=O)cc1 | –
2 | 9.8 | – | > 10000 µM | NS(=O)(=O)Oc1ccc(F)cc1 | –
3 | – | – | 12 µM | NS(=O)(=O)Oc1ccc2ccc(=O)oc2c1 | 1
4 | 9 | 45 | 537 µM | NS(=O)(=O)Oc1cccc(Cl)c1 | –
5 | 9.16 | 174 | 2090 µM | NS(=O)(=O)Oc1cccc(F)c1 | –
6 | 8.02 | 25 | 300 µM | N#Cc1ccc(OS(N)(=O)=O)cc1 | –

The next lines start with the compound.

Row | Compound | pKa [1] | Relative potency [2] | IC50 (Steryl-sulfatase) | Relative potency [3]
7 | NS(=O)(=O)Oc1ccc([N+](=O)[O-])cc1 | 7.15 | 27.5 | 330 µM | –
8 | NS(=O)(=O)Oc1ccccc1 [PHENYLSULFAMATE] | 9.98 | – | > 10000 µM | –
9 | NS(=O)(=O)Oc1cccc(Br)c1 | 8.95 | 21 | 257 µM | –
10 | C[C@]12CC[C@@H]3c4ccc(OS(N)(=O)=O)cc4CC[C@H]3[C@@H]1CCC2=O [EMATE] | – | – | 0.1 µM | 0.008
11 | NS(=O)(=O)Oc1ccc(Cl)cc1 | 9.5 | 132 | 1580 µM | –
12 | NS(=O)(=O)Oc1cccc([N+](=O)[O-])c1 | 8.28 | 10 | 120 µM | –
13 | N#Cc1cccc(OS(N)(=O)=O)c1 | 8.54 | 16 | 190 µM | –
14 | Cc1cccc(OS(N)(=O)=O)c1 | 10 | – | > 10000 µM | –
15 | NS(=O)(=O)Oc1ccc(Br)cc1 | 9.29 | 76 | 912 µM | –
